Laboratory results reported in BindingDB's records for doi:10.1021/cb500018s (Johns Hopkins University, 2014).
Counter-ions that a name gives are not always drawn.

Target: Lysine-specific histone demethylase 1A (Homo sapiens, UniProt O60341)
Assay: GST-LSD1 Enzymatic Assays
Conditions: pH 7.5

| Structure (SMILES) | Ki [nM] |
| --- | --- |
| NNCCc1ccc(NC(=O)CCc2ccccc2)cc1 [N-[4-(2-Hydrazinylethyl)phenyl]-3-phenylpropanamide sulfate salt (12c)] | 260 |
| NNCCc1ccc(NC(=O)c2ccccc2)cc1 [N-[4-(2-Hydrazinylethyl)phenyl]benzamide dihydrochloride salt (12a)] | 280 |
| NNCCCc1ccccc1 [(3-Phenylpropyl)hydrazine dihydrochloride salt (9c)] | 5000 |
| NNCCCCc1ccccc1 [(4-Phenylbutyl)hydrazine dihydrochloride salt (9h)] | 22000 |
| NNCCOc1ccccc1 [(2-Phenoxyethyl)hydrazine dihydrochloride salt (10a)] | 44000 |
| NNCCc1ccc(NC(=O)CCCCc2ccccc2)cc1 [N-[4-(2-Hydrazinylethyl)phenyl]-5-phenylpentanamide oxalate salt (12e)] | 260 |
| NNCCc1ccc(NC(=O)CCCc2ccc([N+](=O)[O-])cc2)cc1 [N-[4-(2-Hydrazinylethyl)phenyl]-4-(4-nitrophenyl)butanamide sulfate salt (12i)] | 282 |
| COc1ccc(CCCC(=O)Nc2ccc(CCNN)cc2)cc1 [N-[4-(2-Hydrazinylethyl)phenyl]-4-(4-methoxyphenyl)butanamide sulfate salt (12h)] | 207 |
| NNCCc1ccc(NC(=O)CCc2c[nH]c3ccccc23)cc1 [N-[4-(2-Hydrazinylethyl)phenyl]-3-(1H-indol-3-yl)propanamide sulfate salt (15a)] | 210 |

Continued, values first:

| Ki [nM] | Structure (SMILES) |
| --- | --- |
| 156 | NNCCc1ccc(NC(=O)CCCc2ccc(Cl)cc2)cc1 [4-(4-Chlorophenyl)-N-[4-(2-hydrazinylethyl)phenyl]butanamide sulfate salt (12f)] |
| 100 | NNCCc1ccc(NC(=O)/C=C/c2ccccc2)cc1 [(2E)-N-[4-(2-Hydrazinylethyl)phenyl]-3-phenylprop-2-enamide sulfate salt (13)] |
| 1600 | NNCCc1ccc(N(Cc2ccccc2)C(=O)CCCc2ccccc2)cc1 [N-Benzyl-N-[4-(2-hydrazinylethyl)phenyl]-4-phenylbutanamide oxalate salt (12m)] |
| 370 | NNCCc1ccc(NC(=O)Cc2ccccc2)cc1 [N-[4-(2-Hydrazinylethyl)phenyl]-2-phenylacetamide dihydrochloride salt (12b)] |
| 8000 | COc1ccc(CCCNN)cc1 [[3-(4-Methoxyphenyl)propyl]hydrazine dihydrochloride salt (9e)] |
| 12000 | NNCCCOc1ccccc1 [(3-Phenoxypropyl)hydrazine dihydrochloride salt (10b)] |
| 223 | CS(=O)(=O)Oc1cccc(CCC(=O)Nc2ccc(CCNN)cc2)c1 [3-(3-{[4-(2-Hydrazinylethyl)phenyl]amino}-3-oxopropyl)phenyl methanesulfonate oxalate salt (12k)] |
| 2000 | CN(C(=O)CCCc1ccccc1)c1ccc(CCNN)cc1 [N-[4-(2-Hydrazinylethyl)phenyl]-N-methyl-4-phenylbutanamide oxalate salt (12l)] |
| 204 | CS(=O)(=O)Oc1ccccc1CCC(=O)Nc1ccc(CCNN)cc1 [2-(3-{[4-(2-Hydrazinylethyl)phenyl]amino}-3-oxopropyl)phenyl methanesulfonate oxalate salt (12j)] |
| 900 | NNCCCc1ccc(OCc2ccccc2)cc1 [{3-[4-(Benxyloxy)phenyl]propyl}hydrazine dihydrochloride salt (14)] |

Target: T1, Amine oxidase [flavin-containing] A (Homo sapiens, UniProt P21397)
T1 sequence (P21397 whole entry): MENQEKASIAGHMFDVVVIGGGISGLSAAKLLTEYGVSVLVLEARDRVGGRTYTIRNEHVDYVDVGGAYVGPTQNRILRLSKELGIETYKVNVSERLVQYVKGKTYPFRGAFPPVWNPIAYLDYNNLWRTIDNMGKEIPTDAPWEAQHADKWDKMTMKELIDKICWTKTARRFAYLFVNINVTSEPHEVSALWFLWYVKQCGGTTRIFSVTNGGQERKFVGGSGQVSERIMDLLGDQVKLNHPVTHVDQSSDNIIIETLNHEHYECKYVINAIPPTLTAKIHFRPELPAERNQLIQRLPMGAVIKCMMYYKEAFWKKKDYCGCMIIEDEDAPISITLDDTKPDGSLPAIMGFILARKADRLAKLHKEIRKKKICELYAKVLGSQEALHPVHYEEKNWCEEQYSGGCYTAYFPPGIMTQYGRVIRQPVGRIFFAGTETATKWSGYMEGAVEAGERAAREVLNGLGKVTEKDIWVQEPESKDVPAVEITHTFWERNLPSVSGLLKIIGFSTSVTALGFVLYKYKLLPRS
Assay: MAO-A/B Activity and Inhibition Assay
Conditions: pH 7.5

| Structure (SMILES) | Ki [nM] |
| --- | --- |
| NNCCc1ccc(NC(=O)CCCc2ccccc2)cc1 [N-[4-(2-Hydrazinylethyl)phenyl]-4-phenylbutanamide dihydrochloride salt (12d)] | 2600 |

Target: T2, Amine oxidase [flavin-containing] B (Homo sapiens, UniProt P27338)
T2 sequence (P27338 whole entry): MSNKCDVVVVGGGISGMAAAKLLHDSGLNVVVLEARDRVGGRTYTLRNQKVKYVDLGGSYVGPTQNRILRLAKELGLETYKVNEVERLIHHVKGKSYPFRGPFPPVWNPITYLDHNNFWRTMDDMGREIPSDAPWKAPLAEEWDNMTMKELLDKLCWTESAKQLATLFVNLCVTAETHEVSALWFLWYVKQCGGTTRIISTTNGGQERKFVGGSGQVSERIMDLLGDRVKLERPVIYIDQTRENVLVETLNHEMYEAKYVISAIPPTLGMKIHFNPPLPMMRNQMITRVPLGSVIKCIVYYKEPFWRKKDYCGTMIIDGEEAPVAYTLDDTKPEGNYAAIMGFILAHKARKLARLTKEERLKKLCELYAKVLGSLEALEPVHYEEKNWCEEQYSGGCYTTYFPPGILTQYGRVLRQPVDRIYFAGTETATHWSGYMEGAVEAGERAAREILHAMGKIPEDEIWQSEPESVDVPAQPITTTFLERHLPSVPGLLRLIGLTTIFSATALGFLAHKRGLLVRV
Assay: MAO-A/B Activity and Inhibition Assay
Conditions: pH 7.5

| Structure (SMILES) | Ki [nM] |
| --- | --- |
| NNCCc1ccc(NC(=O)CCCc2ccccc2)cc1 [N-[4-(2-Hydrazinylethyl)phenyl]-4-phenylbutanamide dihydrochloride salt (12d)] | 6500 |
